Where “and” joins values, the source holds several entries; their conditions need not be identical. Equal entries are not always repeated.
Assay: Accelerated and long term stability study of TTI-101 (Batch A, Batch B): HPLC assay, purity, impurities and water content after storage at 5° C., 25° C./60% RH, 30° C./65% RH or 40° C./75% RH
Format: physicochemical
Conditions: for Impurities RRT 1.06: RRT of Compound 4; for Impurities RRT 0.99: RRT of compound of formula (IV)
Description: Exemplary HPLC conditions: diluent was 0.1% trifluoroacetic acid (TFA) in acetonitrile, Mobile Phase A was 0.05% TFA in water, and Mobile Phase B was 0.05% TFA in acetonitrile, column (Agilent, Eclipse XDB-C18, 3.0×100 mm, particle size 1.8 μm), flow (0.425 mL/min), and detector (280 nm diode array).
Batch A was prepared analogously using Method 3 as described in Example 1. Batch B was prepared according to Method 5 as described in Example 1.
Samples of TTI-101 were stored at 5° C., 25° C./60% RH, 30° C./65% RH, or 40° C./75% RH. TTI-101 was stored in an LDPE bag enclosed with a Nylon cable tie and then transferred to another LDPE bag and enclosed with a Nylon cable tie. The enclosure was put into an HDPE bottle and closed with a polyethylene-lined polypropylene cap. The samples were stored under the above-identified conditions.
The samples were analyzed using HPLC with the exemplary conditions identified above. Relative retention time (RRT) for Compound 5 was about 0.83, Compound 4 was about 1.05-1.06, Compound 6 was about 1.15-1.17, and compound of formula (IV) was about 0.99.
• NA not applicable • NQ ≥0.02% and <0.05% • Avg average • Cmpd compound • — no peak • M month • RRT relative retention time

[1] = 25° C./60% RH, 6 M, P1/P2, listed as Batch A
[2] = 25° C./60% RH, 9 M, P1/P2, listed as Batch A
[3] = 25° C./60% RH, 12 M, P1/P2, listed as Batch A
[4] = 40° C./75% RH, 0 M, P1/P2, listed as Batch A
[5] = 40° C./75% RH, 2 M, P1/P2, listed as Batch A
[6] = 40° C./75% RH, 6 M, P1/P2, listed as Batch A

## COc1ccc(S(=O)(=O)Nc2cc(-c3c(O)ccc4ccccc34)c(O)c3ccccc23)cc1 [TTI-101]
25° C./60% RH, 3 M, P1/P2
  Purity (%): 99.7%
  Water Content (%): <0.04%
25° C./60% RH, 3 M, P1/P2, listed as Batch A
  Assay (%): 99.0% and 100.0%
25° C./60% RH, 6 M, Avg
  Assay (%): 98.2%
  Impurities RRT 1.15 (Cmpd 6): 0.11 area %
  Impurities Total: 0.1 area %
  Purity (%): 99.9%
  Water Content (%): <0.04%
25° C./60% RH, 6 M, P1/P2
  Impurities Total: 0.1 area %
  Purity (%): 99.9%
  Water Content (%): <0.04%
[1]
  Assay (%): 97.0% and 99.5%
  Impurities RRT 1.15 (Cmpd 6): 0.11 area % and 0.12 area %
25° C./60% RH, 9 M, Avg
  Assay (%): 98.4%
  Impurities RRT 1.16 (Cmpd 6): 0.10 area %
  Impurities Total: 0.1 area %
  Purity (%): 99.9%
  Water Content (%): <0.04%
25° C./60% RH, 9 M, P1/P2
  Impurities Total: 0.1 area %
  Purity (%): 99.9%
  Water Content (%): <0.04%
[2]
  Assay (%): 99.7% and 97.0%
  Impurities RRT 1.16 (Cmpd 6): 0.11 area % and 0.10 area %
25° C./60% RH, 12 M, Avg
  Assay (%): 98.5%
  Impurities RRT 1.06 (Cmpd 4): NQ (≥0.02% and <0.05%)
  Impurities RRT 1.16 (Cmpd 6): 0.39 area %
  Impurities RRT 1.52: NQ (≥0.02% and <0.05%)
  Impurities Total: 0.4 area %
  Purity (%): 99.6%
  Water Content (%): 0.04%
25° C./60% RH, 12 M, P1/P2
  Impurities RRT 1.06 (Cmpd 4): NQ (≥0.02% and <0.05%)
  Impurities RRT 1.16 (Cmpd 6): 0.39 area %
  Impurities Total: 0.4 area %
  Purity (%): 99.6%
[3]
  Assay (%): 98.3% and 98.6%
  Water Content (%): <0.04% and 0.04%
25° C./60% RH, 18 M, Avg
  Assay (%): 98.2%
  Impurities RRT 1.15 (Cmpd 6): 0.10 area %
  Impurities Total: 0.1 area %
  Purity (%): 99.9%
  Water Content (%): <0.04%
25° C./60% RH, 18 M, P1/P2
  Impurities RRT 1.15 (Cmpd 6): 0.10 area %
  Impurities Total: 0.1 area %
  Purity (%): 99.9%
  Water Content (%): <0.04%
  Impurities RRT 1.06: NQ (≥0.02% and <0.05%)
25° C./60% RH, 18 M, P1/P2, listed as Batch A
  Assay (%): 98.3% and 98.2%
25° C./60% RH, 24 M, Avg
  Assay (%): 99.3%
  Impurities RRT 1.16 (Cmpd 6): 0.12 area %
  Impurities Total: 0.1 area %
  Purity (%): 99.9%
  Water Content (%): <0.04%
25° C./60% RH, 24 M, P1/P2
  Impurities RRT 1.16 (Cmpd 6): 0.12 area %
  Impurities Total: 0.1 area %
  Purity (%): 99.9%
  Water Content (%): <0.04%
  Impurities RRT 1.06: NQ (≥0.02% and <0.05%)
25° C./60% RH, 24 M, P1/P2, listed as Batch A
  Assay (%): 99.1% and 99.6%
40° C./75% RH, 0 M, Avg
  Assay (%): 99.8%
  Impurities RRT 1.06 (Cmpd 4): NQ (≥0.02% and <0.05%)
  Impurities RRT 1.17 (Cmpd 6): 0.13 area %
  Impurities RRT 1.32: NQ (≥0.02% and <0.05%)
  Impurities Total: 0.1 area %
  Purity (%): 99.8%
  Water Content (%): <0.04%
  Impurities RRT 0.99: NQ (≥0.02% and <0.05%)
40° C./75% RH, 0 M, P1/P2
  Impurities RRT 1.32: NQ (≥0.02% and <0.05%)
  Impurities Total: 0.1 area %
  Purity (%): 99.8%
  Water Content (%): <0.04%
[4]
  Assay (%): 99.9% and 99.7%
  Impurities RRT 1.17 (Cmpd 6): 0.13 area % and 0.12 area %
40° C./75% RH, 2 M, Avg
  Assay (%): 99.9%
  Impurities RRT 1.16 (Cmpd 6): 0.07 area %
  Impurities RRT 1.29: NQ (≥0.02% and <0.05%)
  Impurities RRT 1.38: NQ (≥0.02% and <0.05%)
  Impurities Total: 0.1 area %
  Purity (%): 99.9%
  Water Content (%): <0.04%
  Impurities RRT 0.99: NQ (≥0.02% and <0.05%)
40° C./75% RH, 2 M, P1/P2
  Impurities RRT 1.38: NQ (≥0.02% and <0.05%)
  Impurities Total: 0.1 area %
  Purity (%): 99.9%
  Water Content (%): <0.04%
  Impurities RRT 0.99: NQ (≥0.02% and <0.05%)
[5]
  Assay (%): 100.0% and 99.8%
  Impurities RRT 1.16 (Cmpd 6): 0.08 area % and 0.06 area %
40° C./75% RH, 3 M, Avg
  Assay (%): 99.0%
  Impurities RRT 0.36: NQ (≥0.02% and <0.05%)
  Impurities RRT 1.06 (Cmpd 4): 0.07 area %
  Impurities RRT 1.16 (Cmpd 6): 0.21 area %
  Impurities Total: 0.3 area %
  Purity (%): 99.7%
  Water Content (%): <0.04%
40° C./75% RH, 3 M, P1/P2
  Impurities RRT 1.06 (Cmpd 4): 0.07 area %
  Impurities RRT 1.16 (Cmpd 6): 0.21 area %
  Impurities Total: 0.3 area %
  Purity (%): 99.7%
  Water Content (%): <0.04%
40° C./75% RH, 3 M, P1/P2, listed as Batch A
  Assay (%): 100.8% and 97.2%
40° C./75% RH, 6 M, Avg
  Impurities RRT 1.15 (Cmpd 6): 0.13 area %
  Impurities Total: 0.1 area %
  Purity (%): 99.9%
  Water Content (%): <0.04%
40° C./75% RH, 6 M, P1/P2
  Impurities Total: 0.1 area %
  Purity (%): 99.9%
  Water Content (%): <0.04%
[6]
  Assay (%): 98.5% and 95.9%
  Impurities RRT 1.15 (Cmpd 6): 0.13 area % and 0.12 area %
40° C./75% RH, 8 M, Avg
  Assay (%): 100.3%
  Impurities RRT 1.16 (Cmpd 6): 0.08 area %
  Impurities Total: 0.1 area %
  Purity (%): 99.9%
  Water Content (%): 0.04%
40° C./75% RH, 8 M, P1-P6
  Impurities Total: 0.1 area %
  Purity (%): 99.9%
40° C./75% RH, 8 M, P1-P6, listed as Batch A
  Assay (%): 100.0% and 99.8% and 100.3% and 100.6% and 99.9% and 100.8%
Storage 5° C., 0 M, Avg
  Impurities Total: 0.1 area %
  Impurity RRT 0.61: 0.05 area %
  Impurity RRT 0.86: NQ (≥0.02% and <0.05%)
  Impurity RRT 0.88: NQ (≥0.02% and <0.05%)
  Impurity RRT 0.99: NQ (≥0.02% and <0.05%)
  Impurity RRT 1.16 (Cmp 6): 0.07 area %
  Purity: 99.8%
